Test results published in patent US8394967B2, “Antioxidant inflammation modulators: C-17 homologated oleanolic acid derivatives” (Reata Pharmaceuticals, Inc., priority 2008, dated 2013).
Counter-ions that a name gives are not always drawn. Like-named read-outs stand apart in the source and are kept apart here.

Assays:
[1] = tested on: NO production in RAW264.7 macrophages; experiment: Inhibition of NO production in IFNγ-treated RAW264.7 macrophages (Griess reagent); format: cell-based, mouse; details: then 20 ng/ml IFNγ for 24 hours
Procedure: (§1) FIGS. 1-4, 6 and 8. Inhibition of NO Production. RAW264.7 macrophages were pre-treated with DMSO or drugs at various concentrations (nM) for 2 hours, then treated with 20 ng/ml IFNγ for 24 hours. NO concentration in media was determined using a Griess reagent system; cell viability was determined using WST-1 reagent.
(§2) Nitric Oxide production and cell viability. RAW264.7 macrophages were pre-treated with DMSO or drugs for 2 hours, then treated with recombinant mouse IFNγ (Sigma) for 24 hours. NO concentration in media was determined using the Griess reagent system (Promega). Cell viability was determined using WST-1 reagent (Roche).

[2] = tested on: RAW264.7 macrophages; experiment: Cell viability of RAW264.7 macrophages (WST-1 reagent); format: cell-based, mouse; details: read-out: RAW264.7 (20 ng/ml IFNγ) WST-1 IC50
Procedure: as §1, §2

[3] = Mus musculus, RAW264.7, RAW264.7 macrophages pre-treated 2 hours
[4] = Mus musculus, RAW264.7, 24 h, cell viability, RAW264.7, 20 ng/ml IFNγ 24 hours, WST-1 reagent
[5] = RAW264.7 macrophages pre-treated 2 hours
[6] = cell viability, RAW264.7, 20 ng/ml IFNγ 24 hours, WST-1 reagent

Row | Structure (SMILES) | IC50 [1, 3] | IC50 [1, 5] | IC50 [2, 4] | IC50 [2, 6] | IC50 ([2]; Mus musculus, RAW264.7, 24 h)
1 | CC1(C)CC[C@]2([C@@H](O)CCl)CC[C@]3(C)[C@H](C(=O)C[C@@H]4[C@@]5(C)C=C(C#N)C(=O)C(C)(C)[C@@H]5CC[C@]43C)[C@@H]2C1 (single isomer, unassigned) [Compound 63282] | ~25 nM |  | > 200 nM |  | 
2 | COC(=O)C[C@]12CCC(C)(C)C[C@H]1[C@H]1C(=O)C=C3[C@@]4(C)C=C(C#N)C(=O)C(C)(C)[C@@H]4CC[C@@]3(C)[C@]1(C)CC2 [Compound 402-50, methyl-2-((4aR,6aR,6bS,8aR,12aS,14aR,14bS)-11-cyano-2,2,6a,6b,9,9,12a-heptamethyl-10,14-dioxo-1,2,3,4,4a,5,6,6a,6b,7,8,8a,9,10,12a,14,14a,14b-octadecahydropicen-4a-yl)acetate] | ~2.5 nM |  | 75 nM |  | 
3 | CC1(C)CC[C@]2(CC(=O)O)CC[C@]3(C)[C@H](C(=O)C=C4[C@@]5(C)C=C(C#N)C(=O)C(C)(C)[C@@H]5CC[C@]43C)[C@@H]2C1 [Compound 402-54, 2-((4aR,6aR,6bS,8aR,12aS,14aR,14bS)-11-cyano-2,2,6a,6b,9,9,12a-heptamethyl-10,14-dioxo-1,2,3,4,4a,5,6,6a,6b,7,8,8a,9,10,12a,14,14a,14b-octadecahydropicen-4a-yl)acetic acid] | ~6 nM |  | > 200 nM |  | 
4 | C=C[C@]12CCC(C)(C)C[C@H]1[C@H]1C(=O)CC3[C@@]4(C)C=C(C#N)C(=O)C(C)(C)C4CC[C@@]3(C)[C@]1(C)CC2 (stereo partly drawn) [Compound 63213, (6aR,6bR,8aR,12aS,12bR,14bR)-4,4,6a,6b,11,11,14b-heptamethyl-3,13-dioxo-8a-vinyl-3,4,4a,5,6,6a,6b,7,8,8a,9,10,11,12,12a,12b,13,14,14a,14b-icosahydropicene-2-carbonitrile] | ~40 nM |  | ~200 nM |  | 
5 | Cn1nnc(CNC[C@]23CCC(C)(C)C[C@H]2[C@H]2C(=O)C[C@@H]4[C@@]5(C)C=C(C#N)C(=O)C(C)(C)[C@@H]5CC[C@@]4(C)[C@]2(C)CC3)n1 [Compound 63233, (4aR,6aR,6bR,8aS,12aS,12bR,14aR,14bR)-4,4,6a,6b,11,11,14b-heptamethyl-8a-(((2-methyl-2H-tetrazol-5-yl)methylamino)methyl)-3,13-dioxo-3,4,4a,5,6,6a,6b,7,8,8a,9,10,11,12,12a,12b,13,14,14a,14b-icosahydropicene-2-carbonitrile] |  |  |  |  | > 200 nM
6 | CC1(C)CC[C@]2(CSc3ccccc3)CC[C@]3(C)[C@H](C(=O)C[C@@H]4[C@@]5(C)C=C(C#N)C(=O)C(C)(C)[C@@H]5CC[C@]43C)[C@@H]2C1 [Compound 63235, (4aR,6aR,6bR,8aS,12aS,12bR,14aR,14bR)-4,4,6a,6b,11,11,14b-heptamethyl-3,13-dioxo-8a-(phenylthiomethyl)-3,4,4a,5,6,6a,6b,7,8,8a,9,10,11,12,12a,12b,13,14,14a,14b-icosahydropicene-2-carbonitrile] | ~80 nM |  | ~150 nM |  | 
7 | CCOP(=O)(OCC)OC[C@]12CCC(C)(C)C[C@H]1[C@H]1C(=O)C[C@@H]3[C@@]4(C)C=C(C#N)C(=O)C(C)(C)[C@@H]4CC[C@@]3(C)[C@]1(C)CC2 [Compound 63239, ((4aS,6aR,6bR,8aR,12aR,12bR,14aR,14bS)-11-cyano-2,2,6a,6b,9,9,12a-heptamethyl-10,14-dioxo-1,2,3,4,4a,5,6,6a,6b,7,8,8a,9,10,12a,12b,13,14,14a,14b-icosahydropicen-4a-yl)methyl diethyl phosphate] |  |  |  |  | > 200 nM
8 | CC1(C)CC[C@]2(C[S+]([O-])c3ccccc3)CC[C@]3(C)[C@H](C(=O)C[C@@H]4[C@@]5(C)C=C(C#N)C(=O)C(C)(C)[C@@H]5CC[C@]43C)[C@@H]2C1 (stereo partly drawn) [Compound 63255, (4aR,6aR,6bR,8aS,12aS,12bR,14aR,14bR)-4,4,6a,6b,11,11,14b-heptamethyl-3,13-dioxo-8a-(phenylsulfinylmethyl)-3,4,4a,5,6,6a,6b,7,8,8a,9,10,11,12,12a,12b,13,14,14a,14b-icosahydropicene-2-carbonitrile] | ~50 nM |  | > 200 nM |  | 
9 | CC1(C)CC[C@]2(CS(=O)(=O)c3ccccc3)CC[C@]3(C)[C@H](C(=O)C[C@@H]4[C@@]5(C)C=C(C#N)C(=O)C(C)(C)[C@@H]5CC[C@]43C)[C@@H]2C1 [Compound 63266, (4aR,6aR,6bR,8aS,12aS,12bR,14aR,14bR)-4,4,6a,6b,11,11,14b-heptamethyl-3,13-dioxo-8a-(phenylsulfonylmethyl)-3,4,4a,5,6,6a,6b,7,8,8a,9,10,11,12,12a,12b,13,14,14a,14b-icosahydropicene-2-carbonitrile] | ~30 nM |  | > 200 nM |  | 

Second part, led by results:

Row | IC50 [1, 3] | IC50 [1, 5] | Structure (SMILES) | IC50 [2, 4] | IC50 [2, 6] | IC50 ([2]; Mus musculus, RAW264.7, 24 h)
10 |  | ~20 nM | CC1(C)CC[C@]2(C(O)CBr)CC[C@]3(C)[C@H](C(=O)C[C@@H]4[C@@]5(C)C=C(C#N)C(=O)C(C)(C)[C@@H]5CC[C@]43C)[C@@H]2C1 (single isomer, unassigned) [Compound 63283] |  | ~200 nM | 
11 |  | ~15 nM | CC1(C)CC[C@]2(C(O)CBr)CC[C@]3(C)[C@H](C(=O)C[C@@H]4[C@@]5(C)C=C(C#N)C(=O)C(C)(C)[C@@H]5CC[C@]43C)[C@@H]2C1 (single isomer, unassigned) [Compound 63284] |  | ~200 nM | 
12 |  | ~13 nM | CC1(C)CC[C@]2(C3CO3)CC[C@]3(C)[C@H](C(=O)C[C@@H]4[C@@]5(C)C=C(C#N)C(=O)C(C)(C)[C@@H]5CC[C@]43C)[C@@H]2C1 (single isomer, unassigned) [Compound 63286] |  | > 200 nM | 
13 | ~30 nM |  | CC1(C)CC[C@]2(CN)CC[C@]3(C)[C@H](C(=O)CC4[C@@]5(C)C=C(C#N)C(=O)C(C)(C)C5CC[C@]43C)[C@@H]2C1 (stereo partly drawn) [63214 salt, (6aR,6bR,8aS,12aS,12bR,14bR)-8a-(aminomethyl)-4,4,6a,6b,11,11,14b-heptamethyl-3,13-dioxo-3,4,4a,5,6,6a,6b,7,8,8a,9,10,11,12,12a,12b,13,14,14a,14b-icosahydropicene-2-carbonitrile, trifluoroacetic acid salt] | > 200 nM |  | 
14 | ~9 nM |  | CC1(C)CC[C@]2(CO)CC[C@]3(C)[C@H](C(=O)CC4[C@@]5(C)C=C(C#N)C(=O)C(C)(C)[C@@H]5CC[C@]43C)[C@@H]2C1 (stereo partly drawn) [Compound 402-63, (4aR,6aR,6bR,8aS,12aS,12bR,14bR)-8a-(hydroxymethyl)-4,4,6a,6b,11,11,14b-heptamethyl-3,13-dioxo-3,4,4a,5,6,6a,6b,7,8,8a,9,10,11,12,12a,12b,13,14,14a,14b-icosahydropicene-2-carbonitrile] | > 200 nM |  | 
15 | ~12.5 nM |  | CC(=O)OC[C@]12CCC(C)(C)C(C#N)[C@H]1[C@H]1C(=O)CC3[C@@]4(C)C=CC(=O)C(C)(C)[C@@H]4CC[C@@]3(C)[C@]1(C)CC2 (stereo partly drawn) [Compound 402-65, ((4aS,6aR,6bR,8aR,12aR,14aR,14bS)-1-cyano-2,2,6a,6b,9,9,12a-heptamethyl-10,14-dioxo-1,2,3,4,4a,5,6,6a,6b,7,8,8a,9,10,12a,12b,13,14,14a,14b-icosahydropicen-4a-yl)methyl acetate] | > 200 nM |  | 
16 | > 200 nM |  | CC1(C)CC[C@]2(COP(=O)(O)O)CC[C@]3(C)[C@H](C(=O)C[C@@H]4[C@@]5(C)C=C(C#N)C(=O)C(C)(C)[C@@H]5CC[C@]43C)[C@@H]2C1 [Compound 63269, ((4aS,6aR,6bR,8aR,12aR,12bR,14aR,14bS)-11-cyano-2,2,6a,6b,9,9,12a-heptamethyl-10,14-dioxo-1,2,3,4,4a,5,6,6a,6b,7,8,8a,9,10,12a,12b,13,14,14a,14b-icosahydropicen-4a-yl)methyl dihydrogen phosphate] | > 200 nM |  | 
17 | ~80 nM |  | CC1(C)CC[C@]2(CNCC(F)(F)F)CC[C@]3(C)[C@H](C(=O)C[C@@H]4[C@@]5(C)C=C(C#N)C(=O)C(C)(C)[C@@H]5CC[C@]43C)[C@@H]2C1 [Compound 63273, (4aR,6aR,6bR,8aS,12aS,12bR,14aR,14bR)-4,4,6a,6b,11,11,14b-heptamethyl-3,13-dioxo-8a-((2,2,2-trifluoroethylamino)methyl)-3,4,4a,5,6,6a,6b,7,8,8a,9,10,11,12,12a,12b,13,14,14a,14b-icosahydropicene-2-carbonitrile] | ~200 nM |  | 
18 | ~15 nM |  | CC1(C)CC[C@]2([C@@H]3CO3)CC[C@]3(C)[C@H](C(=O)C[C@@H]4[C@@]5(C)C=C(C#N)C(=O)C(C)(C)[C@@H]5CC[C@]43C)[C@@H]2C1 [Compound 63275, (4aR,6aR,6bR,8aS,12aS,12bR,14aR,14bR)-4,4,6a,6b,11,11,14b-heptamethyl-8a-((R)-oxiran-2-yl)-3,13-dioxo-3,4,4a,5,6,6a,6b,7,8,8a,9,10,11,12,12a,12b,13,14,14a,14b-icosahydropicene-2-carbonitrile] | > 200 nM |  | 
19 | ~50 nM |  | CC1(C)CC[C@]2(CC(=O)O)CC[C@]3(C)[C@H](C(=O)C[C@@H]4[C@@]5(C)C=C(C#N)C(=O)C(C)(C)[C@@H]5CC[C@]43C)[C@@H]2C1 [Compound 63332, 2-((4aR,6aR,6bR,8aR,12aR,12bR,14aR,14bS)-11-cyano-2,2,6a,6b,9,9,12a-heptamethyl-10,14-dioxo-1,2,3,4,4a,5,6,6a,6b,7,8,8a,9,10,12a,12b,13,14,14a,14b-icosahydropicen-4a-yl)acetic acid] |  |  | 
